# Laboratory results as given in US20240368203A1, “DEGRADATION OF (EGFR) BY CONJUGATION OF EGFR INHIBITORS WITH E3 LIGASE LIGAND AND METHODS OF USE” (BeiGene, Ltd., priority 2022, published 2024).
# Key:
# EGFR-L858R/T790M/C797S = target: T1, EGFR-L858R/T790M/C797S (Homo sapiens, UniProt P00533, C797S/L858R/T790M); experiment: EGFR degradation HTRF assay in H1975-clone #25 cells; assay type: cell-based; conditions: 16 h treatment; for DC50: H1975-clone #25 (L858R/T790M/C797S) cells, IC50 (DC50), read-out: DC50(nM) H1975 # 25-LTC; for Dmax: NCI-H1975, H1975-clone #25 (L858R/T790M/C797S) cells, maximum percentage of inhibition (degradation), read-out: Dmax (%) H1975 # 25-LTC
# T1 construct: expressed in transfected cells; host or cells: H1975-clone #25 (lentiviral over-expression, endogenous EGFR knocked out)
# Summary of the method: (§1)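 H1975 clones with endogenous EGFR knocked out, homozygously expressing lentiviral L858R/T790M/C797S (#25) or Del19/T790M/C797S (#28), treated 16 h at 37° C with 8 doses from 10 uM, 5-fold, in 0.2% DMSO. EGFR in lysates measured by HTRF overnight; DC50 from four-parameter fit of % degradation.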
# EGFR-Del19/T790M/C797S = experiment: EGFR degradation HTRF assay in H1975-clone #28 cells; assay type: cell-based; conditions: H1975-clone #28 (Del19/T790M/C797S) cells, 16 h treatment; for DC50: IC50 (DC50), read-out: DC50(nM) H1975 # 28 DTC; for Dmax (%) H1975 # 28 DTC: maximum percentage of inhibition (degradation)
# Summary of the method: as §1
# T1 sequence (P00533 25-1210 T790M/C797S/L858R): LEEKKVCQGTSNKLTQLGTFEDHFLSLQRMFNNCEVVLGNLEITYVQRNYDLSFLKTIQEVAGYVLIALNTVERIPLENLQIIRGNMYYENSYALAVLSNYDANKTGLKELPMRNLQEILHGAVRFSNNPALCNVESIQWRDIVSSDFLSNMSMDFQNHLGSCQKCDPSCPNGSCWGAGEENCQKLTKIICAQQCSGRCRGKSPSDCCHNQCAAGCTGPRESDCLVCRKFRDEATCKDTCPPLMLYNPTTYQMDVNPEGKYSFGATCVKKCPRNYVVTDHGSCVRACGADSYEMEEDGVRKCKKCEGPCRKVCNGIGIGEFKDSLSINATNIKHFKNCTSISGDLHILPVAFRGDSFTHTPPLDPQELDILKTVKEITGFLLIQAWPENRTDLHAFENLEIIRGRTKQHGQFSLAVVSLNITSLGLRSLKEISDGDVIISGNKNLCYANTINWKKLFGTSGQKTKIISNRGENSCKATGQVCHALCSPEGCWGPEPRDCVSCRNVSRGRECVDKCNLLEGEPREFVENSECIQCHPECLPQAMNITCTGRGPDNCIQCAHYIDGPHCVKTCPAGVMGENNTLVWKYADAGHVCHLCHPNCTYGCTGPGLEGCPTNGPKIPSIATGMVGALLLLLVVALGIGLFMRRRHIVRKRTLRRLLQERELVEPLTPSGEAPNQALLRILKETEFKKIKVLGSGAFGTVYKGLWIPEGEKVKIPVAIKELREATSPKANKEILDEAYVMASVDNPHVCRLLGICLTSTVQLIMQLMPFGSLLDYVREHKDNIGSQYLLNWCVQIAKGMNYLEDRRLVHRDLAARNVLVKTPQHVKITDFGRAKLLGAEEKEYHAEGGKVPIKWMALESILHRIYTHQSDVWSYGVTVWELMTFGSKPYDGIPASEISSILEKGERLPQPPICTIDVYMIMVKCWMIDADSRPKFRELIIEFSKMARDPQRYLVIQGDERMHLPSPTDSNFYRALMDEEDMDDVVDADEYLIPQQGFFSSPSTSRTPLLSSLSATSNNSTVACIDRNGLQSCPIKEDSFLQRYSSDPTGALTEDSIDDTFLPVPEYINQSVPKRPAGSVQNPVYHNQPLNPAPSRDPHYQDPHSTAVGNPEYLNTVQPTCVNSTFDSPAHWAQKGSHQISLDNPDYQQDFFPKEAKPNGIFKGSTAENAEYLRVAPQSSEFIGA
SMILES,DC50 (EGFR-L858R/T790M/C797S),Dmax (EGFR-L858R/T790M/C797S),DC50 (EGFR-Del19/T790M/C797S),Dmax (%) H1975 # 28 DTC (EGFR-Del19/T790M/C797S)
"CCc1cc(Nc2ncc(Br)c(Nc3ccc4nc(C)c(F)cc4c3P(C)(C)=O)n2)c(OC)cc1N1CCC(N2CC(CN3CCC(c4cc(F)c([C@H]5CCC(=O)NC5=O)c(F)c4)CC3)C2)CC1 [Example 56, (R)-3-(4-(1-((1-(1-(4-((5-bromo-4-((5-(dimethylphosphoryl)-3-fluoro-2-methylquinolin-6-yl)amino)pyrimidin-2-yl)amino)-2-ethyl-5-methoxyphenyl)piperidin-4-yl)azetidin-3-yl)methyl)piperidin-4-yl)-2,6-difluorophenyl)piperidine-2,6-dione]",5.6 nM,90%,8.2 nM,86%
"CCOc1cc(N2CCC(N3CCC4(CC3)CN(c3cc(F)c([C@H]5CCC(=O)NC5=O)c(F)c3)C4)CC2)c(CC)cc1Nc1ncc(Cl)c(Nc2ccc3nc(C)c(F)cc3c2P(C)(C)=O)n1 [Example 57, (R)-3-(4-(7-(1-(4-((5-chloro-4-((5-(dimethylphosphoryl)-3-fluoro-2-methylquinolin-6-yl)amino)pyrimidin-2-yl)amino)-5-ethoxy-2-ethylphenyl)piperidin-4-yl)-2,7-diazaspiro[3.5]nonan-2-yl)-2,6-difluorophenyl)piperidine-2,6-dione]",2.7 nM,90%,4.5 nM,88%
"CCc1ccc2c(P(C)(C)=O)c(Nc3nc(Nc4cc(CC)c(N5CCC(N6CC7(CCN(c8cc(F)c([C@H]9CCC(=O)NC9=O)c(F)c8)CC7)C6)CC5)cc4OC)ncc3Br)ccc2n1 [Example 58, (R)-3-(4-(2-(1-(4-((5-bromo-4-((5-(dimethylphosphoryl)-2-ethylquinolin-6-yl)amino)pyrimidin-2-yl)amino)-2-ethyl-5-methoxyphenyl)piperidin-4-yl)-2,7-diazaspiro[3.5]nonan-7-yl)-2,6-difluorophenyl)piperidine-2,6-dione]",3.1 nM,91%,1.6 nM,91%
"CCOc1cc(N2CCC(N3CC4(CCN(c5cc(F)c([C@H]6CCC(=O)NC6=O)c(F)c5)CC4)C3)CC2)c(CC)cc1Nc1ncc(Cl)c(Nc2ccc3nc(C)c(F)cc3c2P(C)(C)=O)n1 [Example 59, (R)-3-(4-(2-(1-(4-((5-chloro-4-((5-(dimethylphosphoryl)-3-fluoro-2-methylquinolin-6-yl)amino)pyrimidin-2-yl)amino)-5-ethoxy-2-ethylphenyl)piperidin-4-yl)-2,7-diazaspiro[3.5]nonan-7-yl)-2,6-difluorophenyl)piperidine-2,6-dione]",2.7 nM,92%,3.8 nM,87%
"CCc1cc(Nc2ncc(Br)c(Nc3ccc4nc(C)c(F)cc4c3P(C)(C)=O)n2)c(OC)cc1N1CCC(N2CC3(CN(c4cc(F)c([C@H]5CCC(=O)NC5=O)c(F)c4)C3)C2)CC1 [Example 60, (R)-3-(4-(6-(1-(4-((5-bromo-4-((5-(dimethylphosphoryl)-3-fluoro-2-methylquinolin-6-yl)amino)pyrimidin-2-yl)amino)-2-ethyl-5-methoxyphenyl)piperidin-4-yl)-26-diazaspiro[3.3]heptan-2-yl)-2,6-difluorophenyl)piperidine-2,6-dione]",1.1 nM,95%,0.5 nM,95%
"CCc1cc(Nc2ncc(Cl)c(Nc3ccc4nc(C)c(F)cc4c3P(C)(C)=O)n2)c(OC)cc1N1CC2(C1)CN(C1CCN(c3cc(F)c([C@H]4CCC(=O)NC4=O)c(F)c3)CC1)C2 [Example 61, (R)-3-(4-(4-(6-(4-((5-chloro-4-((5-(dimethylphosphoryl)-3-fluoro-2-methylquinolin-6-yl)amino)pyrimidin-2-yl)amino)-2-ethyl-5-methoxyphenyl)-2,6-diazaspiro[3.3]heptan-2-yl)piperidin-1-yl)-2,6-difluorophenyl)piperidine-2,6-dione]",1.2 nM,94%,0.9 nM,94%
"CCc1cc(Nc2ncc(Br)c(Nc3ccc4nc(C)c(F)cc4c3P(C)(C)=O)n2)c(OC)cc1N1CCC2(CC1)CN(C1CCN(c3cc(F)c([C@H]4CCC(=O)NC4=O)c(F)c3)CC1)C2 [Example 62, (R)-3-(4-(4-(7-(4-((5-bromo-4-((5-(dimethylphosphoryl)-3-fluoro-2-methylquinolin-6-yl)amino)pyrimidin-2-yl)amino)-2-ethyl-5-methoxyphenyl)-2,7-diazaspiro[3.5]nonan-2-yl)piperidin-1-yl)-2,6-difluorophenyl)piperidine-2,6-dione]",1.6 nM,95%,1.4 nM,89%
"CCc1ccc2c(P(C)(C)=O)c(Nc3nc(Nc4cc(CC)c(N5CCC(N6CCC(N7CC(c8cccc9c8n(C)c(=O)n9C8CCC(=O)NC8=O)C7)CC6)CC5)cc4OC)ncc3Br)ccc2n1 (centres unmarked) [Example 63, 3-(4-(1-(1′-(4-((5-bromo-4-((5-(dimethylphosphoryl)-2-ethylquinolin-6-yl)amino)pyrimidin-2-yl)amino)-2-ethyl-5-methoxyphenyl)-[1,4′-bipiperidin]-4-yl)azetidin-3-yl)-3-methyl-2-oxo-2,3-dihydro-1H-benzo[d]imidazol-1-yl)piperidine-2,6-dione]",2.7 nM,77%,4.7 nM,74%
"CCc1cc(Nc2ncc(Br)c(Nc3ccc4nc(C)c(F)cc4c3P(C)(C)=O)n2)c(OC)cc1N1CC2(C1)CN(C1CCN(c3cc(F)c([C@H]4CCC(=O)NC4=O)c(F)c3)CC1)C2 [Example 64, (R)-3-(4-(4-(6-(4-((5-bromo-4-((5-(dimethylphosphoryl)-3-fluoro-2-methylquinolin-6-yl)amino)pyrimidin-2-yl)amino)-2-ethyl-5-methoxyphenyl)-2,6-diazaspiro[3.3]heptan-2-yl)piperidin-1-yl)-2,6-difluorophenyl)piperidine-2,6-dione]",1.5 nM,95%,1.1 nM,94%
"COc1cc(N2CCC3(CC2)CCN(C2CCN(c4cc(F)c([C@H]5CCC(=O)NC5=O)c(F)c4)CC2)CC3)c(C)cc1Nc1ncc(Br)c(Nc2ccc3nc(C)ncc3c2P(C)(C)=O)n1 [Example 66, (R)-3-(4-(4-(9-(4-((5-bromo-4-((5-(dimethylphosphoryl)-2-methylquinazolin-6-yl)amino)pyrimidin-2-yl)amino)-5-methoxy-2-methylphenyl)-3,9-diazaspiro[5.5]undecan-3-yl)piperidin-1-yl)-2,6-difluorophenyl)piperidine-2,6-dione]",6.9 nM,93%,3.5 nM,91%
"CCc1ccc2c(P(C)(C)=O)c(Nc3nc(Nc4cc(C)c(N5CCC6(CCN(CCc7cccc8c7n(C)c(=O)n8C7CCC(=O)NC7=O)CC6)CC5)cc4OC)ncc3Br)ccc2n1 (centres unmarked) [Example 68, 3-(4-(2-(9-(4-((5-bromo-4-((5-(dimethylphosphoryl)-2-ethylquinolin-6-yl)amino)pyrimidin-2-yl)amino)-5-methoxy-2-methylphenyl)-3,9-diazaspiro[5.5]undecan-3-yl)ethyl)-3-methyl-2-oxo-2,3-dihydro-1H-benzol[d]imidazol-1-yl)piperidine-2,6-dione]",3.1 nM,81%,2.2 nM,82%
"COc1cc(N2CCC3(CCN(CC4CCN(c5ccc6c(c5)CN(C5CCC(=O)NC5=O)C6=O)CC4)CC3)CC2)c(C)cc1Nc1ncc(Br)c(Nc2ccc3nc(C)ccc3c2P(C)(C)=O)n1 (centres unmarked) [Example 72, 3-(5-(4-((9-(4-((5-bromo-4-((5-(dimethylphosphoryl)-2-methylquinolin-6-yl)amino)pyrimidin-2-yl)amino)-5-methoxy-2-methylphenyl)-3,9-diazaspiro[5.5]undecan-3-yl)methyl)piperidin-1-yl)-1-oxoisoindolin-2-yl)piperidine-2,6-dione]",2 nM,82%,1.8 nM,82%
CCc1cc(Nc2ncc(Cl)c(Nc3ccc4nc(C)c(F)cc4c3P(C)(C)=O)n2)c(OC)cc1N1CC2(CN(CC3CN(c4cc(F)c([C@H]5CCC(=O)NC5=O)c(F)c4)C3)C2)C1 [Example 78],5.4 nM,74%,1.9 nM,90%
"CCc1cc(Nc2ncc(Br)c(Nc3ccc4nc(C)c(F)cc4c3P(C)(C)=O)n2)c(OC)cc1N1CCC2(CCN(CC3CCN(c4cc(F)c([C@H]5CCC(=O)NC5=O)c(F)c4)CC3)CC2)CC1 [Example 79, (R)-3-(4-(4-((9-(4-((5-bromo-4-((5-(dimethylphosphoryl)-3-fluoro-2-methylquinolin-6-yl)amino)pyrimidin-2-yl)amino)-2-ethyl-5-methoxyphenyl)-3,9-diazaspiro[5.5]undecan-3-yl)methyl)piperidin-1-yl)-2,6-difluorophenyl)piperidine-2,6-dione]",3.3 nM,95%,6.6 nM,90%
